{"source": "patent US20170276611A1", "about": "“CHALCOGENOPYRYLIUM DYES, COMPOSITIONS COMPRISING SAME, COMPOSITE NANOPARTICLES COMPRISING SAME, AND METHODS OF MAKING AND USING THE SAME” (The Research Foundation for The State University of New York, priority 2014, published 2017)", "format_in_all_cases": "physicochemical", "key": {"[1]": {"assay": "UV/VIS-near-IR absorption of the dyes", "settings": "Table 2, Example 2 dyes", "procedure": "Synthetic Methods. All reactions were performed open to air unless otherwise noted. Concentration in vacuo was performed on a rotary evaporator. NMR spectra were recorded at 300 or 500 MHz for ^1H and at 75.5 MHz for ^13C with residual solvent signal as internal standard. UV/VIS-near-IR spectra were recorded in quartz cuvettes with a 1-cm path length. Melting points were determined with a capillary melting point apparatus and are uncorrected. […] Pyranones 16b-16d are known compounds (J. Heterocycl. Chem. 1999, 36, 707-717). The synthesis of thiopyranone 16a and 4-methylpyrylium salt 15c is shown in Scheme 2. 4-Methylpyrylium salts 15a, 15d, and 15e have been reported previously in the literature (J. Org. Chem. 1982, 47, 5235-5239; Organometallics 1988, 7, 1131-1147; Dyes Pigm. 2000, 45, 1-7)."}, "[2]": {"assay": "Effect of counterion on colloidal stability of SERRS-nanoprobes", "settings": "10 μM dye", "procedure": "Effect of counterion on colloidal stability and SERRS-signal. […] Since SERRS is highly dependent on these factors, we evaluated the effect of the counterion (Z^−) on the SERRS spectrum, intensity, and colloidal stability of the pyrylium-based SERRS-nanoprobes. We compared chloride (Cl^−), bromide (Br^−), perchlorate (ClO4^−), and hexafluorophosphate (PF6^−) as counterions for chalcogenopyrylium dye 1a. The SERRS-nanoprobes were synthesized in the presence of equimolar amounts (10 μM) of CP dye 1a.Z^− (where Z^−═Cl^−, Br^−, ClO4^−, or PF6^−). The counterion introduces almost no difference in optical properties (e.g. absorption maxima, extinction coefficient). Furthermore, with the exception of the chloride counter-ion, the Raman shifts and intensity of 1a were minimally affected by the different counterions (FIG. 17 B). […] Since the PF6^− anion induced the least nanoparticle aggregation, it was used for further SERRS experiments.\nSERRS-nanoprobe characterization. […] The size and concentration of the SERRS-nanoprobes were determined on a Nanoparticle Tracking Analyzer (NTA; Malvern Instruments, Malvern, UK). Absorption spectra to determine possible nanoparticle aggregation (typically detectable at wavelengths >600 nm) were measured on an M1000Pro spectrophotometer (Tecan Systems Inc. San Jose, Calif.). […]"}, "[3]": {"assay": "Fluorescence of dyes incorporated in silica without gold nanoparticle", "settings": "dye in silica without gold nanoparticle, excited at 785-nm, 50 μW/cm^2, 1.0 s", "source_text": "Comparison of CP-dye 3 with a cyanine-based SERRS-reporter. In order to assess the quality of our optimized nanoprobe, thiopyrylium dye 3 and commercially available IR792 (FIG. 19 A), which has been previously used to generate surface-enhanced resonance Raman scattering nanoprobes, were studied. […] It is interesting to note that a fluorescence background is minimal in the SERRS spectra of the CP- and cyanine-based SERRS-nanoprobes. Whereas fluorescence interference would not be expected from chalcogenopyrylium dyes containing heavy chalcogens that enhance intersystem crossing, fluorescence interference could be expected for the cyanine dye IR792. […] This is due to quenching effects near the surface of the nanoparticle."}}, "data": [{"smiles": "C(=Cc1cc(-c2ccccc2)[se+]c(-c2ccccc2)c1)C=C1C=C(c2ccccc2)[Se]C(c2ccccc2)=C1.F[P-](F)(F)(F)(F)F", "note": "[Dye 1a, 4-(3-(2,6-diphenyl-4H-selenopyran-4-ylidene)prop-1-enyl)-2,6-diphenylselenopyrylium hexafluorophosphate]", "values": [{"measurement": "Log (ε)", "setting": "[1]", "result": 5.40}, {"measurement": "λmax (CH2Cl2)", "setting": "[1]; CH2Cl2", "result": 806, "unit": "nm"}, {"measurement": "colloidal stability of SERRS-nanoprobes", "setting": "[2]; counterion Cl^−", "result": "strongly destabilized the gold colloids and caused aggregation"}, {"measurement": "colloidal stability of SERRS-nanoprobes", "setting": "[2]; counterion PF6^−", "result": "did not affect colloidal stability"}]}, {"smiles": "CCCN1/C(=C\\C=C2/CCCC(/C=C/C3=[N+](CCC)c4ccccc4C3(C)C)=C2Sc2ccccc2)C(C)(C)c2ccccc21", "note": "[IR792]", "values": [{"measurement": "fluorescence", "setting": "[3]", "result": "strong fluorescence"}]}]}
